Experimental data published in article PMC5897774, “Mitotic spindle association of TACC3 requires Aurora‐A‐dependent stabilization of a cryptic α‐helix” (The EMBO Journal, 2018).
Where two headings read alike, the source gives them in different places. Values belong to the molecule of their own block, whether it stands above or below them. Residues, ends and D or L forms follow the SMILES beside them. No end group written: not given here.

How the values were obtained:
[1] = target: T1, Aurora‐A (Homo sapiens, UniProt O14965, C290A/C393A); assay: FP binding assay, FAM-TACC3 peptides to Aurora‐A (WT); details: fluorescence polarization
T1 construct: pET30TEV Aurora‐A 122–403 C290A, C393A; made in house
T1 sequence (O14965 122-403 C290A/C393A): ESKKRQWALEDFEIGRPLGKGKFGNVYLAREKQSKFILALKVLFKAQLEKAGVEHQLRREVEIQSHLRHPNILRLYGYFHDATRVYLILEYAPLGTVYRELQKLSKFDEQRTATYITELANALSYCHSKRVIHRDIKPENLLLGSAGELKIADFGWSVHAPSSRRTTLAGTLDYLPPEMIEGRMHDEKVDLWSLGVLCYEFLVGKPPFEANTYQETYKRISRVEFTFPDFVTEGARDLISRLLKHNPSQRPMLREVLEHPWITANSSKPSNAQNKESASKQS
Description: The contributions of the site 1 residues to the interaction were quantified using fluorescence polarization spectroscopy (FP) with a set of fluorescein (FAM)‐labelled peptides. […] Mutations within the pocket on Aurora‐A which accommodates the F525 side chain (E134A, R137A, L149A, R151A and I158A mutations) all reduced the affinity for the WT TACC3 522–536 peptide.
Aurora‐A/TACC3 fluorescence polarization assays were performed as stated (Richards et al, 2016) using FAM‐TACC3 peptides (PPR, Cambridge; Almac, Craigavon). Binding assays were performed in triplicate. FP signal was fit to a one‐site total binding model in Prism 6 (GraphPad). Results are reported as K d ± SE.

[2] = NMR chemical shift index analysis of TACC3 549–570 helicity; format: physicochemical; details: 2 mM peptide, 20 mM Tris pH 7.2, 50 mM NaCl, 290 K, αH and αC secondary shifts
Text: We used NMR spectroscopy to determine the extent to which these α‐helices are present in TACC3 in the absence of binding partners in solution. Chemical shift index (CSI) plots were created for phosphorylated and unphosphorylated TACC3^CID following standard methods (Fig 7D and E; Wishart & Sykes, 1994). In addition to calculating α‐proton chemical shifts we also measured secondary chemical shifts for α‐carbons. After the type of amino acid, the main contribution to chemical shifts of α‐carbons is the ψ angle and thus the backbone conformation. Proximity of charges or aromatic side chains which can strongly affect proton chemical shifts has virtually no effect on the chemical shifts of α‐carbons which makes them very robust probes of backbone conformation. […] We concluded that phosphorylation of S558 increases the propensity for α‐helix formation in TACC3, and we examined the structure to identify the mechanism.
For analysis of TACC3 549–570 helicity, synthetic peptides were weighed in to give a sample concentration of 2 mM in 20 mM Tris pH 7.2 and 50 mM NaCl. Spectra were recorded at a temperature of 290 K on a Bruker Avance‐Neo 600 MHz spectrometer equipped with a prodigy cryoprobe. Peptides were assigned using 2D NOESY, TOCSY and 13C HSQC spectra recorded with watergate and gradient coherence selection, respectively. […]

[3] = system: mitotic spindle, HeLa cells; assay: Spindle localization of re‐expressed GFP‐CHC constructs in CHC‐depleted HeLa cells; format: cell-based, human; details: metaphase, endogenous CHC depleted, confocal imaging
Description: For RNAi and re‐expression of GFP‐tagged proteins in HeLa cells, siRNA and pBrain plasmids were used. Briefly, for TACC3, cells were transfected with siRNA on day 0, transfected 10 h later with pBrain plasmid and analysed on day 2. For CHC, cells were transfected with siRNA on day 0, transfected with pBrain plasmids on day 2 and fixed on day 4.
For immunofluorescence studies on the CHC/TACC3 interface mutants, cells were fixed with PTEMF (50 mM PIPES, pH 7.2, 10 mM EGTA, 1 mM MgCl2, 0.2% Triton X‐100, and 4% paraformaldehyde) for 15 min at RT, and then permeabilized (PBS with 0.1% Triton X‐100) for 10 min. Cells were blocked (PBS with 3% BSA, 5% goat serum) for 30 min, and then incubated for 1 h with the specified primary antibodies: mouse anti‐CHC (X22, Affinity BioReagents, 1:1,000), rabbit anti‐alpha tubulin (Thermo, PA5‐19489, 1:1,000), mouse anti‐TACC3 (AbCam, ab56595, 1:1,000). Secondary antibodies labelled with Alexa Fluor 568 or Alexa Fluor 647 from Life Technologies (diluted 1:500) were used along with DAPI. […] Equal exposure settings and scaling were used between conditions.
For spindle enrichment analysis, mean pixel density in two 10 × 10 pixel ROI was measured either over the spindle (away from poles), in the cytoplasm or in a non‐cell region of background, using ImageJ. Background was subtracted from the spindle and cytoplasm measurements, and spindle fluorescence was then divided by cytoplasm fluorescence. Sample sizes 48–53 cells (TACC3) and 36–51 cells (CHC) over two experiments were analysed per condition. […] Differences in spindle recruitment were evident at all expression levels. IgorPro was used to find and plot the ratio of spindles to cytoplasmic fluorescence intensity per cell. Images were cropped in ImageJ, and figures were assembled in Adobe Illustrator. Some images were contrast adjusted for presentation.

[4] = system: unphosphorylated Aurora‐A KD; assay: Autophosphorylation assay of unphosphorylated Aurora‐A KD (Western blot αphospho‐T288); format: biochemical, human; details: unphosphorylated Aurora‐A 122–403, 1 h, room temperature
Text: (§1) Figure 2 TACC3 523–534 forms a docking interaction on the N‐lobe of Aurora‐A • Magnified view of the site 1 interaction. • Schematic showing the key features of the TACC3/Aurora‐A interface. • FP assays of binding between site 1 of TACC3 and Aurora‐A. The sequence of TACC3 present in the complex crystal structure is shown (top) with the residues of the site 1 FP peptide coloured orange and mutated residues identified by coloured circles corresponding to the curves shown in the FP assay (below). Data represent mean of three experiments ± SD. […] Data represent mean of three experiments ± SD. […] Reactions were analysed by SDS–PAGE (above) and Western blotting with an αphospho‐T288 Aurora‐A antibody (below). […] They are listed as printed.
(§2) Autophosphorylation assays were performed as for radioactive ^32P‐ATP reactions using Aurora‐A 122–403 co‐expressed with lambda phosphatase for 1 h at room temperature with His‐Aurora‐A D274N as a substrate in replace of MBP. Reactions were resolved by SDS–PAGE and subject to Western blotting using an α‐phospho‐T288 Aurora‐A antibody (CST 2914, 1:2,000) as per the manufacturer's recommendation.

[5] = system: Aurora‐A KD (substrate: Aurora‐A D274N); assay: Substrate phosphorylation of kinase‐dead Aurora‐A D274N by Aurora‐A KD (Western blot αphospho‐T288); format: biochemical, human; details: Aurora‐A D274N as substrate, 1 h, room temperature
Text: as §1, §2

[6] = target: T1, Aurora‐A; assay: Radioactive 32P‐ATP kinase assay, MBP substrate; format: biochemical; details: 0.625 μM phosphorylated Aurora‐A, 5 μM TACC3^N‐ACID, 0.25 mg/ml MBP, 10 min, scintillation counting, duplicate
Description: Figure EV2 Biochemical and structural analysis of the Aurora‐A/TACC3 complex • FP assay between FAM‐TACC3 519–570 and Aurora‐A. Reactions were performed in triplicate. Error bars represent standard deviation. […] Error bars represent standard deviation. […] This peptide was based on the location of a sulphate ion, originating from the crystallization solution, at the interface of the Aurora‐A/TACC3 interface in the crystal structure, close to TACC3 T534. […] Myelin basic protein (MBP) was used as a generic kinase substrate. Incorporation of radioisotope was measured by scintillation counting. Reactions were performed in duplicate. Error bars represent standard error. Assays were compared to the WT TACC3^N‐ACIDH6c reaction by one‐way ANOVA with Dunnett's post hoc test. […], **P < 0.01 and ****P < 0.0001. • Multiple sequence alignment of TACC3 (above) and Aurora‐A (below) orthologs spanning the interaction binding interface. Key binding residues are boxed in red. The TACC3 phosphorylation sites, S552 and S558, are boxed in blue. The TACC3 LL motif required for binding to CHC is boxed in green. The TACC3 α‐helix produced on binding to CHC is identified by a black line. TEXT PRINTED IN THE PICTURE: (A) TACC3 519-570: 3.0 ± 0.2 μM | (B) WT: 20 ± 1 μM | (B) R526A: 49 ± 2 μM | (B) phospho-T534: 14 ± 1 μM
Radioactive ^32P‐ATP kinase assays were performed as described previously (Burgess et al, 2015). In brief, 0.625 μM Aurora‐A^M3KD WT or selected mutant was incubated with 0.25 mg/ml MBP alone and in the presence of 5 μM TACC3^N‐ACID WT or mutant for 10 min. Reactions were terminated by the addition of 2% (v/v) orthophosphoric acid. Samples were spotted onto P81 Whatman paper, washed extensively with 0.2% (v/v) orthophosphoric acid and incorporation of radioisotope measured by scintillation counting.

[7] = target: T1, Aurora‐A; design: method as in Burgess et al, 2015; details: previous data, effect of F525A mutation; ref Burgess et al, 2015; read-out: K d of the interaction; cited from earlier work
[8] = target: T2, FAM‐TACC3 549–570 phosphorylated on S558 (FAM‐phospho‐TACC3^CID) (human, UniProt Q9Y6A5 549-570, fluorescein (FAM) label; phosphoserine at 558); assay: fluorescence polarisation; CHC proteins serially diluted in 20 mM HEPES–NaOH pH 7.5, 200 mM NaCl, 5 mM DTT; 50 nM FAM‐labelled TACC3 peptide; 30 min at room temperature; read at 25°C; details: both partners purified
T2 construct: TACC3, human, aa549–570 (TACC3^CID); also called pTACC3^CID; FAM‐labelled pTACC3^CID; source: FAM‐labelled peptide (FAM‐TACC3 peptides: PPR, Cambridge; Almac, Craigavon)
T2 peptide (looked up): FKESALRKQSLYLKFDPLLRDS

reduced affinity ([1]; relative to WT TACC3 522–536 peptide): 10 fold
Molecule: CC(C)[C@H](NC(=O)[C@H](CCC(=O)O)NC(=O)[C@H](C)NC(=O)[C@@H]1CCCN1C(=O)[C@H](CC(=O)O)NC(=O)[C@H](CCCNC(=N)N)NC(=O)[C@H](Cc1ccccc1)NC(=O)[C@H](CO)NC(=O)[C@H](CCC(=O)O)NC(=O)[C@H](CCC(=O)O)NC(=O)c1ccc2c(c1)C(=O)OC21c2ccc(O)cc2Oc2cc(O)ccc21)C(=O)N[C@@H](C)C(=O)NCC(=O)N[C@H](C(=O)NCC(=O)N[C@@H](C)C(=O)O)[C@@H](C)O [L532A] (HELM PEPTIDE1{[O=C1OC2(c3ccc(O)cc3Oc3cc(O)ccc32)c2ccc(C(=O)[*:2])cc21].E.E.S.F.R.D.P.A.E.V.A.G.T.G.A}$$$$V2.0; N-terminus and C-terminus assumed)

Kd ([1]; FAM‐labelled peptide, triplicate, one‐site total binding fit, legend: mean of three experiments ± SD, methods: K d ± SE, read-out: K d (binding affinity)): 3 ± 0.2 µM
Molecule: ELKEESFRDPAEVLGTGAEVDYLEQFGTSSFKESALRKQSLYLKFDPLLRDS [FAM‐TACC3 519–570]

propensity for helix formation (CSI) [2]: much higher propensity
Molecule: FKESALRKQSLYLKFDPLLRDS [phosphorylated peptide, synthetic TACC3 549–570 peptide phosphorylated at S558, used for NMR]

Molecule: GFP‐CHC D455K: mutation of a residue that holds R481 in place
spindle localization of GFP‐CHC construct [3]: impaired in spindle localization

Molecule: GFP‐CHC L476D, L480D: GFP-CHC mutated in the TACC3 binding site
spindle localization of GFP‐CHC construct [3]: impaired in spindle localization

Molecule: GFP‐CHC L503A, Y504A: GFP-CHC mutated in the TACC3 binding site
spindle localization of GFP‐CHC construct [3]: impaired in spindle localization

Molecule: GFP‐CHC R481E: GFP-CHC mutated in the TACC3 binding site
spindle localization of GFP‐CHC construct [3]: impaired in spindle localization

stimulation of Aurora‐A activity [6]: twofold–threefold
Molecule: TACC3^N‐ACID F525A: TACC3^N-ACID with F525A mutation (ELKEESARDPAEVLGTGAEVDYLEQFGTSSFKESALRKQSLYLKF; not fully specified (C-terminus))
Aurora‐A autophosphorylation on T288 [4]: reduced | substrate phosphorylation on T288 (Aurora‐A D274N) [5]: reduced | Kd [7]: > 150 µM

stimulation of Aurora‐A activity [6]: twofold–threefold
Molecule: TACC3^N‐ACID L532A: TACC3^N-ACID with L532A mutation (ELKEESFRDPAEVAGTGAEVDYLEQFGTSSFKESALRKQSLYLKF; not fully specified (C-terminus))

fold increase in Kd against WT [8]: > 6 fold
B1: CHC 1–574 F492Y (domain or fragment, UniProt Q00610 1-574, looked up)
chain: MAQILPIRFQEHLQLQNLGINPANIGFSTLTMESDKFICIREKVGEQAQVVIIDMNDPSNPIRRPISADSAIMNPASKVIALKAGKTLQIFNIEMKSKMKAHTMTDDVTFWKWISLNTVALVTDNAVYHWSMEGESQPVKMFDRHSSLAGCQIINYRTDAKQKWLLLTGISAQQNRVVGAMQLYSVDRKVSQPIEGHAASFAQFKMEGNAEESTLFCFAVRGQAGGKLHIIEVGTPPTGNQPFPKKAVDVFFPPEAQNDFPVAMQISEKHDVVFLITKYGYIHLYDLETGTCIYMNRISGETIFVTAPHEATAGIIGVNRKGQVLSVCVEEENIIPYITNVLQNPDLALRMAVRNNLAGAEELFARKFNALFAQGNYSEAAKVAANAPKGILRTPDTIRRFQSVPAQPGQTSPLLQYFGILLDQGQLNKYESLELCRPVLQQGRKQLLEKWLKEDKLECSEELGDLVKSVDPTLALSVYLRANVPNKVIQCYAETGQVQKIVLYAKKVGYTPDWIFLLRNVMRISPDQGQQFAQMLVQDEEPLADITQIVDVFMEYNLIQQCTAFLLDALKNNR
notes: source: expressed and purified as the WT protein (modified pGEX vector; GST cleaved with TEV)
